In ChEMBL document CHEMBL5532639, “Heterocyclic pyrimidine derivatives as promising antibacterial agents” (Eur J Med Chem, 2023):
Values after ≈ are worked out from the molar mass of the structure shown.

Assays:
Escherichia coli [1] = assay: Antimicrobial activity against Escherichia coli RCMB 010052 assessed as bacterial growth inhibition by measuring zone of inhibition at 50 ug/ml by agar cup diffusion assay; assay type: functional; conditions: read-out: IZ
Streptococcus pneumoniae = assay: Antimicrobial activity against Streptococcus […] assessed as bacterial growth inhibition by measuring zone of inhibition at 50 ug/ml by agar cup diffusion assay; assay type: functional; conditions: read-out: IZ
Bacillus subtilis [2] = assay: Antimicrobial activity against Bacillus subtilis RCMB 010069 assessed as bacterial growth inhibition by measuring zone of inhibition at 50 ug/ml by agar cup diffusion assay; assay type: functional; conditions: read-out: IZ
Bacillus subtilis [3] = assay: Antibacterial activity against Bacillus subtilis ATCC 465 assessed as reduction in bacterial growth measured after 24 hrs by Mueller-Hinton broth assay; assay type: functional
Staphylococcus aureus [4] = assay: microbe, parasite or virus in culture; conditions: ATCC 25923, 24 h
Description: Antibacterial activity against Staphylococcus aureus ATCC 25923 assessed as reduction in bacterial growth measured after 24 hrs by Mueller-Hinton broth assay

Pseudomonas aeruginosa [5] = assay: Antibacterial activity against Pseudomonas aeruginosa assessed as reduction in microbial growth by measuring zone of inhibition; assay type: functional
Bacillus subtilis [6] = assay: Antibacterial activity against Bacillus subtilis assessed as reduction in microbial growth by measuring zone of inhibition; assay type: functional
Escherichia coli [7] = assay: Antibacterial activity against Escherichia coli assessed as reduction in microbial growth by measuring zone of inhibition; assay type: functional
Staphylococcus aureus [8] = assay: Antibacterial activity against Staphylococcus aureus assessed as reduction in microbial growth by measuring zone of inhibition; assay type: functional
Salmonella typhimurium [9] = assay: Antibacterial activity against Salmonella typhimurium DT104 assessed as reduction in bacterial growth; assay type: functional, Salmonella enterica subsp. enterica serovar Typhimurium; conditions: Salmonella enterica
Escherichia coli [10] = assay: Antibacterial activity against Escherichia coli ATCC 25922 assessed as bacterial growth inhibition; assay type: functional
Staphylococcus aureus [11] = assay: Antibacterial activity against Staphylococcus aureus ATCC 3750 assessed as reduction in bacterial growth; assay type: functional
Bacillus subtilis [12] = assay: Antibacterial activity against Bacillus subtilis 6633 assessed as reduction in bacterial growth; assay type: functional
Bacillus subtilis [13] = assay: Antibacterial activity against Bacillus subtilis assessed as zone of inhibition at 20 mg/ml; assay type: functional; conditions: read-out: IZ
Sarcina = assay: Antibacterial activity against Sarcina assessed as zone of inhibition at 20 mg/ml; assay type: functional; conditions: read-out: IZ
Staphylococcus aureus [14] = assay: Antibacterial activity against Staphylococcus aureus assessed as zone of inhibition at 20 mg/ml; assay type: functional; conditions: read-out: IZ
Escherichia coli [15] = assay: Antibacterial activity against Escherichia coli assessed as zone of inhibition at 20 mg/ml; assay type: functional; conditions: read-out: IZ
Serratia marcescens = assay: Antibacterial activity against Serratia marcescens assessed as zone of inhibition at 20 microg/ml; assay type: functional; conditions: read-out: IZ
Staphylococcus aureus [16] = assay: Antibacterial activity against Staphylococcus aureus assessed as bacterial growth inhibition by measuring zone of inhibition at 50 ug/ml by agar cup diffusion assay; assay type: functional; conditions: read-out: IZ
Escherichia coli [17] = assay: Antibacterial activity against Escherichia coli assessed as bacterial growth inhibition by measuring zone of inhibition at 50 ug/ml by agar cup diffusion assay; assay type: functional; conditions: read-out: IZ
Salmonella typhimurium [18] = assay: Antibacterial activity against Salmonella typhimurium DT104 assessed as bacterial growth inhibition by measuring zone of inhibition at 50 ug/ml by agar cup diffusion assay; assay type: functional, Salmonella enterica subsp. enterica serovar Typhimurium; conditions: Salmonella enterica, read-out: IZ
Bacillus subtilis [19] = assay: Antibacterial activity against Bacillus subtilis assessed as bacterial growth inhibition by measuring zone of inhibition at 50 ug/ml by agar cup diffusion assay; assay type: functional; conditions: read-out: IZ
Escherichia coli [20] = assay: Antibacterial activity against Escherichia coli assessed as bacterial growth inhibition incubated for 18 hrs by CLSI protocol based Mueller-Hinton broth assay; assay type: functional
Pseudomonas aeruginosa [21] = assay: Antibacterial activity against Pseudomonas aeruginosa assessed as reduction in bacterial growth by broth microdilution method; assay type: functional
Staphylococcus aureus [22] = assay: Antibacterial activity against Staphylococcus aureus assessed as reduction in microbial growth by CLSI based broth microdilution method; assay type: functional
Streptococcus pyogenes = assay: Antibacterial activity against Streptococcus pyogenes assessed as reduction in microbial growth by CLSI based broth microdilution method; assay type: functional

With Nc1nc2ncnn2c(-c2ccc(Br)cc2)c1C(=O)c1ccc(C(=O)O)cc1 the zone of inhibition at 50 µg/mL (Escherichia coli [1]) was 18.3 mm, the zone of inhibition at 50 µg/mL (Streptococcus pneumoniae) was 21.3 mm and the zone of inhibition at 50 µg/mL (Bacillus subtilis [2]) was 28.9 mm.

With N#Cc1nc2[nH]c(=O)[nH]c(=O)c2c(-c2c(Cl)cccc2Cl)c1N the MIC (Bacillus subtilis [3]) was 4 µg/mL (≈ 11.5 µM) and the MIC (Staphylococcus aureus [4]) was 64 µg/mL (≈ 184 µM).

Work on Cc1ccc(-c2c(C(=O)c3ccc(C(=O)O)cc3)c(N)nc3ncnn23)cc1 yielded a zone of inhibition at 50 µg/mL (Escherichia coli [1]) of 16.6 mm, a zone of inhibition at 50 µg/mL (Streptococcus pneumoniae) of 20.7 mm and a zone of inhibition at 50 µg/mL (Bacillus subtilis [2]) of 26.8 mm.

For Clc1ccc(/C=N/Nc2nc(SCc3ccccc3)ncc2I)cc1, the “inhibition zone (IZ)” value (Pseudomonas aeruginosa [5]) was 18 mm, the “inhibition zone (IZ)” value (Bacillus subtilis [6]) was 10 mm and the “inhibition zone (IZ)” value (Escherichia coli [7]) was 8 mm. The “inhibition zone (IZ)” value (Staphylococcus aureus [8]) was 10 mm.

Cc1nc2scc(-c3ccco3)c2c(=O)n1NC(=O)c1ccc([N+](=O)[O-])cc1 gave an MIC (Salmonella typhimurium [9]) of 5 µg/mL (≈ 12.6 µM), an MIC (Escherichia coli [10]) of 7 µg/mL (≈ 17.7 µM) and an MIC (Staphylococcus aureus [11]) of 6 µg/mL (≈ 15.1 µM). For the same compound, the MIC (Bacillus subtilis [12]) was 5 µg/mL (≈ 12.6 µM).

Work on COc1ccc(-c2c(C(=O)c3ccc(C(=O)O)cc3)c(N)nc3nc4ccccc4n23)cc1 yielded a zone of inhibition at 50 µg/mL (Escherichia coli [1]) of 17.9 mm, a zone of inhibition at 50 µg/mL (Streptococcus pneumoniae) of 19.3 mm and a zone of inhibition at 50 µg/mL (Bacillus subtilis [2]) of 24.7 mm.

In the case of Cc1nc2scc(-c3ccco3)c2c(=O)n1/N=C/c1ccc([N+](=O)[O-])cc1, the MIC (Salmonella typhimurium [9]) was 12 µg/mL (≈ 31.5 µM), the MIC (Escherichia coli [10]) was 12 µg/mL (≈ 31.5 µM) and the MIC (Staphylococcus aureus [11]) was 11 µg/mL (≈ 28.9 µM). For the same compound, the MIC (Bacillus subtilis [12]) was 11 µg/mL (≈ 28.9 µM).

Cc1cnc(NS(=O)(=O)c2ccc(/N=N/c3c(=O)[nH]n4c(NN)c(C#N)c(N)nc34)cc2)nc1 gave a zone of inhibition at 20000 µg/mL (Bacillus subtilis [13]) of 9 mm, a zone of inhibition at 20000 µg/mL (Sarcina) of 12 mm and a zone of inhibition at 20000 µg/mL (Staphylococcus aureus [14]) of 9 mm. It also gave a zone of inhibition at 20000 µg/mL (Escherichia coli [15]) of 12 mm and a zone of inhibition at 20 µg/mL (Serratia marcescens) of 15 mm.

Cc1nc2scc(-c3ccco3)c2c(=O)n1/N=C/c1ccc(Cl)cc1Cl showed an MIC (Salmonella typhimurium [9]) of 5 µg/mL (≈ 12.4 µM), an MIC (Escherichia coli [10]) of 6 µg/mL (≈ 14.8 µM) and an MIC (Staphylococcus aureus [11]) of 4 µg/mL (≈ 9.89 µM). For the same compound, the MIC (Bacillus subtilis [12]) was 4 µg/mL (≈ 9.89 µM).

In the case of COc1ccc(Nc2c(C#N)c(N)nc3c(/N=N/c4ccc(S(=O)(=O)Nc5ncccn5)cc4)c(=O)[nH]n23)cc1, the zone of inhibition at 20000 µg/mL (Bacillus subtilis [13]) was 9 mm, the zone of inhibition at 20000 µg/mL (Sarcina) was 15 mm and the zone of inhibition at 20000 µg/mL (Staphylococcus aureus [14]) was 12 mm. The zone of inhibition at 20000 µg/mL (Escherichia coli [15]) was 15 mm and the zone of inhibition at 20 µg/mL (Serratia marcescens) was 15 mm.

In the case of Ic1cnc(SCc2ccccc2)nc1N/N=C/c1c(-c2ccccc2)c(-c2ccccc2)nn1-c1ccccc1, the “inhibition zone (IZ)” value (Pseudomonas aeruginosa [5]) was 16 mm, the “inhibition zone (IZ)” value (Bacillus subtilis [6]) was 20 mm and the “inhibition zone (IZ)” value (Escherichia coli [7]) was 10 mm. The “inhibition zone (IZ)” value (Staphylococcus aureus [8]) was 18 mm.

Cc1nc2scc(-c3ccco3)c2c(=O)n1NC(=O)c1ccc(F)cc1F showed an MIC (Salmonella typhimurium [9]) of 5 µg/mL (≈ 12.9 µM), an MIC (Escherichia coli [10]) of 4 µg/mL (≈ 10.3 µM) and an MIC (Staphylococcus aureus [11]) of 4 µg/mL (≈ 10.3 µM). It also gave an MIC (Bacillus subtilis [12]) of 5 µg/mL (≈ 12.9 µM).

Compound N#Cc1nc2[nH]c(=O)[nH]c(=O)c2c(-c2ccccc2)c1N has an MIC (Bacillus subtilis [3]) of 2 µg/mL (≈ 7.16 µM) and an MIC (Staphylococcus aureus [4]) of 8 µg/mL (≈ 28.6 µM).

Work on O=C(CSc1nnc(-c2cccnc2N2CCOCC2)o1)Nc1nc(-c2ccc(Cl)cc2)cc(-c2cc(F)c(Cl)cc2Cl)n1 yielded a zone of inhibition at 50 µg/mL (Staphylococcus aureus [16]) of 13 mm, a zone of inhibition at 50 µg/mL (Escherichia coli [17]) of 10 mm and a zone of inhibition at 50 µg/mL (Salmonella typhimurium [18]) of 9 mm. The zone of inhibition at 50 µg/mL (Bacillus subtilis [19]) was 10 mm.

With O=S(=O)(Nc1ncccn1)c1ccc(Nc2nc(Nc3ccc(Cl)cc3)nc(N3CCCCC3)n2)cc1 the MIC (Escherichia coli [20]) was 25 µg/mL (≈ 46.5 µM), the MIC (Pseudomonas aeruginosa [21]) was 100 µg/mL (≈ 186 µM) and the MIC (Staphylococcus aureus [22]) was 200 µg/mL. For the same compound, the MIC (Streptococcus pyogenes) was 100 µg/mL.

Compound O=C(CSc1nnc(-c2cccnc2N2CCOCC2)o1)Nc1nc(-c2ccc(Cl)cc2Cl)cc(-c2cc(F)c(Cl)cc2Cl)n1 has a zone of inhibition at 50 µg/mL (Staphylococcus aureus [16]) of 13 mm, a zone of inhibition at 50 µg/mL (Escherichia coli [17]) of 12 mm and a zone of inhibition at 50 µg/mL (Salmonella typhimurium [18]) of 12 mm. It also gave a zone of inhibition at 50 µg/mL (Bacillus subtilis [19]) of 9 mm.

For CSc1c(C#N)c(N)nc2c(/N=N/c3ccc(S(=O)(=O)Nc4ncc(C)cn4)cc3)c(=O)[nH]n12, the zone of inhibition at 20000 µg/mL (Bacillus subtilis [13]) was 9 mm, the zone of inhibition at 20000 µg/mL (Sarcina) was 12 mm and the zone of inhibition at 20000 µg/mL (Staphylococcus aureus [14]) was 9 mm. For the same compound, the zone of inhibition at 20000 µg/mL (Escherichia coli [15]) was 12 mm and the zone of inhibition at 20 µg/mL (Serratia marcescens) was 15 mm.

Cc1nc2scc(-c3ccco3)c2c(=O)n1/N=C/c1ccc(F)cc1F gave an MIC (Salmonella typhimurium [9]) of 6 µg/mL (≈ 16.2 µM), an MIC (Escherichia coli [10]) of 5 µg/mL (≈ 13.5 µM) and an MIC (Staphylococcus aureus [11]) of 5 µg/mL (≈ 13.5 µM). The MIC (Bacillus subtilis [12]) was 4 µg/mL (≈ 10.8 µM).

Cc1ccc(-c2cc(-c3cc(F)c(Cl)cc3Cl)nc(NC(=O)CSc3nnc(-c4cccnc4N4CCOCC4)o3)n2)cc1 gave a zone of inhibition at 50 µg/mL (Staphylococcus aureus [16]) of 11 mm, a zone of inhibition at 50 µg/mL (Escherichia coli [17]) of 12 mm and a zone of inhibition at 50 µg/mL (Salmonella typhimurium [18]) of 10 mm. The zone of inhibition at 50 µg/mL (Bacillus subtilis [19]) was 8 mm.
